The source of these data is patent publication US20150004631A1, “Plasmodium falciparum HLA class I restricted T-cell epitopes” (priority 2013, published 2015).

No end group written: not given here.

Holding throughout (assay type): cell-based, human
For experiment [1], the system named is PBMC. The experiment in a line: ELISpot IFN-γ assay, PBMC of Ad5-PfCA immunized volunteers (Gp1). Particulars: for ELISpot activity of 15 mer peptide: v005, 1 month PBMC. Here is the method:
[…] In these studies, IFN-γ activity was measured in response to exposure to the peptide pools. The assays were conducted essentially as described by Wang, et al., Proc. Natl. Acad. Sci. (U.S.A.), 98: 10817-22.
The stimulation of circulating antigen-specific T cell lymphocytes was evaluated by measurement of γ-IFN induction by ELISPOT. The ELISpot assay was conducted using thawed cryopreserved PBMC at 200K cells per well. Pre-challenge cells were taken at day 21 and day 22 post AdPfCA vaccination. Cells were suspended in […] complete medium and were stimulated with AMA1 peptides suspended in […] of complete medium. Peptide concentrations used in assays was 10 μg/ml of each peptide tested. Cultures were incubated for 36 h at 37° C., 5% CO2. Depending on availability of cells, each PBMC sample was assayed in duplicate, triplicate, or quadruplicate and the number of IFN-γ-secreting cells recognized as spot-forming cells (SFC) was enumerated using an automated ELISpot reader. In duplicate assays, all values were used in analysis. For triplicate or quadruplicate assays, outliers were rejected if any single value contributed more than 50% of the standard deviation of the triplicate (or quadruplicate) and if its value was three-fold greater or less than the average of the remaining two (or three) values. The mean spot forming cells (SFCs) obtained in negative control wells were subtracted from the value of each test well from the same sample. Negative counts generated by this background subtraction were converted to zero. The mean spot number of the test sample was then calculated and expressed as SFC/million PBMCs. Values obtained with pre-vaccinated samples were subtracted from the post-vaccination values.

In the next experiment the test system is CD4+ and CD8+ T cells. The experiment in a line: Intracellular cytokine staining (ICS) of PBMC. The following applies: for CD8^+ T cell IFN-γ response in ICS: HLA-matched volunteers, compared with parent peptide pool, FIG. 1 upper panel; for multifunctional CD8^+ T cell responses in ICS: v008 and v012, any two of IFN-γ, IL-2, TNF-α, FIG. 1 lower panel. As for the experimental part: ICS was performed on PBMCs with costimulatory antibodies anti-CD28 and […] (obtained from BD Bioscience™, San Jose, Calif.). The peptides were used at the same concentrations as in ELISpot assays. Stimulants were added t cells and incubated at 37° C. with 5% CO2 for 2 hr. Golgi Plug™ (Brefeldin A) (BD Bioscience™, San Jose, Calif.) was added at a final concentration of 0.6 μL/mL and incubated at 37° C. with 5% CO2 overnight. Cells were stained with anti-CD3 (Alexa Fluor 700™), anti-CD4 (PerCP™), and anti-CD8 Pacific Blue™ (obtained from BD Bioscience™, San Jose, Calif.). and 1 μg/mL of live/dead fixable blue dye, incubated and washed. Cells were permeabilized with Cytofix/Cytoperm™ solution (obtained from BD Bioscience™, San Jose, Calif.), incubated and washed. Cells were stained intracellularly with anti-CD3 (Alexa Fluor 700™), anti-CD4 (PerCP™), and anti-CD8 Pacific Blue™, anti-IFN-γ FITC, anti-TNF PE, and anti-IL2 APC, incubated and washed. Cells were resuspended and the entire available sample was acquired by flowcytometry. The gating strategy included progressively measuring total cells; viable cells only; lymphocytes; T cells; CD4^+ CD8^+ populations; and a specific cell type expressing a specific cytokine. Histograms were used to determine the total production of IFN-γ, IL2, and TNF for the CD4^+ and CD8^+ populations. Boolean gates were used to determine cells producing combinations of cytokines.
In these studies, T cells containing IFN-γ, IL2, or TNFα, were gated into different subsets: IFN-γ+, IL2+, TNFα−; IFN-γ+, IL2−, TNFα+; IFN-γ+, IL2+, TNFα+; or IFN-γ+, IL2−, TNFα− T cells, and stimulated with the predicted epitopes and their parent peptide pool. The frequency of CD8^+ T cells producing total IFN-γ was far greater than CD4^+ T cell responses (FIG. 1, upper panel), which were extremely low.

The test system of experiment [2] is CD4+ or CD8+ T cell depleted PBMC. Nature of the experiment: ELISpot IFN-γ assay after CD4+ or CD8+ T cell depletion of PBMC (Example 1). Particulars: versus control depletion. As for the experimental part:
PBMC population depletion was conducted using anti-human CD4+ and anti-CD8^+ coated Dynabeads™ M-450 (Dynal, Great Neck, N.Y.) following the manufacturer's instructions. Mock depletion was done with Dynabeads coated with Sheep anti-mouse IgG. Flow cytometry confirmed that T-cell subset depletions were >99% in all experiments. The data is presented as the % effect (decrease) in activity after T cell subset depletion.
Finally, we wanted to confirm that indeed the responses to AMA14e were mediated by CD8^+ T cells. We compared activity to AMA14e in ELISpot depletion assays and ICS CD4^+ or CD8^+ T cell IFN-γ assays with Ap1-12 and recombinant AMA1 protein with v001 and v005 (FIG. 3). CD8^+ T cell depletion reduced ELISpot activity to AMA14e by about 85% in v001 and 95% in v005.

The test system of experiment [3] is PBMC. Nature of the experiment: ELISpot IFN-γ assay, PBMC of AdPfCA / DNA prime-AdPfCA boost volunteers (Example 2). Particulars: minimal epitope contained in Ap10; primarily CD8^+. An excerpt: To more clearly define immunological active regions of AMA1, PBMCs were isolated from AMA1 immunized volunteers. Two groups of volunteers, i.e., Gp 1 (from example 1, above) and Gp2, received 2×10^10 particle units of AdPfCA (NMRC-M3V-Ad-PfCA, NMRC+Multi-antigen Multi-stage, Malaria Vaccine+Adenovector+P. falciparum CSP & AMA1 antigens). The vaccine is a combination of two separate recombinant Ad5 constructs, one expressing full length CSP and the other expressing full length apical membrane antigen 1 (AMA1). AdPfCA expressed the AMA1 regions A1 through A12. Twenty-eight (28) days later, PBMC's were collected.
In a third group (termed preCh in FIG. 7 and FIG. 8), fifteen volunteers were primed with three doses (2 mg/dose) with one month between doses. Sixteen weeks after the final DNA priming dose, each volunteer received 2×10^10 particle units of AdPfCA. PBMC's were collected on day 22-23 after receiving AdPfCA. […]
The stimulation of circulating antigen-specific T cell lymphocytes was evaluated by measurement of γ-IFN induction by ELISPOT. […] Depending on availability of cells, each PBMC sample was assayed in duplicate, triplicate, or quadruplicate and the number of IFN-γ-secreting cells recognized as spot-forming cells (SFC) was enumerated using an automated ELISpot reader. […] The mean spot number of the test sample was then calculated and expressed as SFC/million PBMCs. […]

For the sequence CEIFNVKPTCLINNS [Ap8-12], the “IFN-γ ELISpot activity of individual 15 mer peptide” value (shortened to “IFN-γ ELISpot activity”) in the experiment on PBMC [1] (Volunteer 005) was 127 SFC/10^6.
On to CNKLVFELSASDQPK [Ap7-7], for which the “IFN-γ ELISpot activity” value in the experiment with PBMC [1] (Volunteer 001) was found to be 77 SFC/10^6.
Regarding EDIPHVNEFPAIDLF [Ap7-3], the “IFN-γ ELISpot activity” value with PBMC [1] (Volunteer 001) came out at 139 SFC/10^6.
With EMRHFYKDNKYVKNL [Ap4-11], the “IFN-γ ELISpot activity” value in the experiment with PBMC [1] (Volunteer 005) was 65 SFC/10^6. Besides, the “ELISpot activity of 15 mer peptide” value in the experiment with PBMC [1] stood at 65 sfc/m.
Take “ETQKCEIFNV (listed as Plasmodium falciparum) [Ep # 10]”: in the experiment with CD4+ and CD8+ T cells, the “CD8^+ T cell IFN-γ response in ICS” value was “very weak CD8^+ IFN-γ responses” and the “multifunctional CD8^+ T cell responses in ICS” value is recorded as “did not appear to induce multifunctional responses”.
Consider ETQKCEIFNVKPTCL [Ap8-11], for which the “IFN-γ ELISpot activity” value with PBMC [1] (Volunteer 001) came out at 48 SFC/10^6; in the experiment with PBMC [1] (Volunteer 005), 218 SFC/10^6; in the experiment with PBMC [1] (Volunteer 008), 48 SFC/10^6.
With FKADRYKSHGKGYNW [Ap8-6], the “IFN-γ ELISpot activity” value in the experiment with PBMC [1] (Volunteer 012) amounted to 143 SFC/10^6.
“HPKEYEYPL (listed as Plasmodium falciparum) [Ep # 9]”: the “CD8^+ T cell IFN-γ response in ICS” value in the experiment on CD4+ and CD8+ T cells was “equal or more CD8^+ IFN-γ than the parent peptide pool”.
HVNEFPAIDLFECNK [Ap7-4]: the “IFN-γ ELISpot activity” value in the experiment with PBMC [1] (Volunteer 001) is given as 96 SFC/10^6.
With INEHREHPKEYEYPL [Ap1-11], the “% effect on ELISpot activity, CD4 dep” value in experiment [2] (V002) is −18%; in experiment [2] (V005), −37%. In addition, the “% effect on ELISpot activity, CD8 dep” value in experiment [2] (V002) is recorded as −94%; in experiment [2] (V005), −100%. For the same sequence, the “IFN-γ ELISpot activity” value was 180 SFC/10^6 in the experiment with PBMC [1] (Volunteer 002) and 322 SFC/10^6 in the experiment on PBMC [1] (Volunteer 005).
On to KEYEYPLHQEHTYQQ [Ap1-13], for which, in experiment [2] (V001), the “% effect on ELISpot activity, CD4 dep” value is “+133%” and the “% effect on ELISpot activity, CD8 dep” value is reported as −76%. Besides, the “IFN-γ ELISpot activity” value in the experiment with PBMC [1] (Volunteer 001) stood at 42 SFC/10^6.
The corresponding values for LLSAFEFTYMINFGR [Ap1-3] are −32%, −56% and 48 SFC/10^6.
With LMSPMTLDEMRHFYK [Ap4-9], in experiment [2] (V005), the “% effect on ELISpot activity, CD4 dep” value was −32% and the “% effect on ELISpot activity, CD8 dep” value is on record as −100%. For the same sequence, the “IFN-γ ELISpot activity” value in the experiment on PBMC [1] (Volunteer 002) amounted to 189 SFC/10^6. The “IFN-γ ELISpot activity” value with PBMC [1] (Volunteer 005) was found to be 395 SFC/10^6.
Turning to MTLDEMRHFYKDNKY [Ap4-10], the “IFN-γ ELISpot activity” value in the experiment on PBMC [1] (Volunteer 002) is reported as 82 SFC/10^6; with PBMC [1] (Volunteer 005), 118 SFC/10^6.
Take “NEFPAIDLF (listed as Plasmodium falciparum) [Ep # 2]”: the “CD8^+ T cell IFN-γ response in ICS” value in the experiment with CD4+ and CD8+ T cells was “equal or more CD8^+ IFN-γ than the parent peptide pool”.
Turning to NEVVVKEEY [Ep # 1, NEVVVKEEY], the “CD8^+ T cell IFN-γ response in ICS” value in the experiment with CD4+ and CD8+ T cells is “equal or more CD8^+ IFN-γ than the parent peptide pool”.
Turning to NQYLKDGGFAFPPTE [Ap4-5], the “IFN-γ ELISpot activity” value in the experiment with PBMC [1] (Volunteer 005) turned out to be 50 SFC/10^6. The “ELISpot activity of 15 mer peptide” value in the experiment with PBMC [1] was 50 sfc/m.
As for “NSTCRFFVCK (listed as Plasmodium falciparum)”, in the experiment on PBMC [3], the “T-cell response (IFN-γ SFC)” value is “significant T-cell response”.
QNSDVYRPINEHREH [Ap1-9]: the “IFN-γ ELISpot activity” value in the experiment on PBMC [1] (Volunteer 001) came out at 48 SFC/10^6.
With REHPKEYEYPLHQEH [Ap1-12], the “IFN-γ ELISpot activity” value with PBMC [1] (Volunteer 002) worked out at 66 SFC/10^6; in the experiment on PBMC [1] (Volunteer 005), 118 SFC/10^6.
With RYKSHGKGY [Ep # 14, RYKSHGKGY], in the experiment with CD4+ and CD8+ T cells, the “CD8^+ T cell IFN-γ response in ICS” value is on record as “very weak CD8^+ IFN-γ responses” and the “multifunctional CD8^+ T cell responses in ICS” value is recorded as “did not appear to induce multifunctional responses”. Besides, the “ELISpot 7m, predicted 8-10 mer epitope” value with PBMC [1] (Vol 012, PBMC 7 months) is 11. Moreover, in the experiment on PBMC [1] (v012, criteria for positive 40 SFC/million), the “recognition of minimal epitope in ELISpot” value is recorded as “negative”.
Take TLDEMRHFY [Ep # 8]: the “CD8^+ T cell IFN-γ response in ICS” value in the experiment on CD4+ and CD8+ T cells was “equal or more CD8^+ IFN-γ than the parent peptide pool”. In addition, the “ELISpot 4m, predicted 8-10 mer epitope” value with PBMC [1] (Vol 002, PBMC 4 months) is given as 51.
Take TSNNEVVVKEEYKDE [Ap10-13]: the “% effect on ELISpot activity, CD4 dep” value in experiment [2] (V001) is listed as “+148%”; in experiment [2] (V012), “+14%”. Further, the “% effect on ELISpot activity, CD8 dep” value in experiment [2] (V001) is −88%; in experiment [2] (V012), −100%. For the same sequence, the “IFN-γ ELISpot activity” value in the experiment on PBMC [1] (Volunteer 001) stood at 250 SFC/10^6; in the experiment on PBMC [1] (Volunteer 012) it was 233 SFC/10^6.
